Experimental data taken from US20230146455A1, “TREATMENT OF INFLAMMATORY DISEASES WITH PEPTIDES AND PHARMACEUTICAL COMPOSITIONS” (Yuyu Pharma, Inc., priority 2020, published 2023).
“And” between values parts separate entries of the source, which are not always exact repeats. Identical values can stand only once. Where a SMILES comes first, the peptide text is derived from it. [ ]: non-standard residue; d: D form. Hyp = O=C(O)[C@@H]1C[C@@H](O)CN1

Experiments:
IL-6 = test: Example 9 Luminex, LPS hPBMCs: IL-6; format: cell-based, human; conditions: Bead IL-6, PBMC without LPS
Procedure: (§1) Treatment Human PBMCs were pretreated with YY-101, YDE-011 and YDE-043 or reference compound; Xiidra® at various concentration (ranging from 1 nM to 100 uM) for 2 h before stimulation. An equal volume of 0.5% DMSO was used as a vehicle control. Then, the cells were treated with LPS at 5 ug/ml. The supernatants from treated cells were harvested at 24 h and placed in a 96 well for Luminex cytokine & chemokine profiling using a Luminex 200 multiplex assay (Luminex; R&D system, USA).
(§2) The main study arm with triplicate wells per group in a 24-well plate: • 1. Blank • 2. PBMC: 0.5% DMSO • 3. PBMC+LPS (5 ug/ml) • 4. PBMC+YY-101 100 uM • 5. PBMC+YY-101 10 uM • 6. PBMC+YY-101 1 uM • 7. PBMC+YY-101 0.1 uM • 8. PBMC+YY-101 0.01 uM • 9. PBMC+LPS (5 ug/ml)+Xiidra®100 uM • 10. PBMC+LPS (5 ug/ml)+Xiidra® 10 uM • 11. PBMC+LPS (5 ug/ml)+Xiidra® 1 uM • 12. PBMC+LPS (5 ug/ml)+Xiidra®0.1 uM • 13. PBMC+LPS (5 ug/ml)+Xiidra®0.01 uM • 14. PBMC+LPS (5 ug/ml)+Xiidra®0.001 uM • 15. PBMC+LPS (5 ug/ml)+YY-101 100 uM • 16. PBMC+LPS (5 ug/ml)+YY-101 10 uM • 17. PBMC+LPS (5 ug/ml)+YY-101 1 uM • 18. PBMC+LPS (5 ug/ml)+YY-101 0.1 uM • 19. PBMC+LPS (5 ug/ml)+YY-101 0.01 uM • 20. PBMC+LPS (5 ug/ml)+YY-101 0.001 uM • 21. PBMC+LPS (5 ug/ml)+YDE-011 100 uM • 22. PBMC+LPS (5 ug/ml)+YDE-011 10 uM • 23. PBMC+LPS (5 ug/ml)+YDE-011 1 uM • 24. PBMC+LPS (5 ug/ml)+YDE-011 0.1 uM • 25. PBMC+LPS (5 ug/ml)+YDE-011 0.01 uM • 26. PBMC+LPS (5 ug/ml)+YDE-011 0.001 uM • 27. PBMC+LPS (5 ug/ml)+YDE-043 100 uM • 28. PBMC+LPS (5 ug/ml)+YDE-043 10 uM • 29. PBMC+LPS (5 ug/ml)+YDE-043 1 uM • 30. PBMC+LPS (5 ug/ml)+YDE-043 0.1 uM • 31. PBMC+LPS (5 ug/ml)+YDE-043 0.01 uM • 32. PBMC+LPS (5 ug/ml)+YDE-043 0.001 uM
(§3) Multiplex assay was used to measure 30 cytokines and chemokines. The 1:2, 1:10 and 1:200 diluted cell supernatant and serial dilution of the standard were dispensed into a 96 well plate at 50 ul/well. Then, the pre-mixed cocktail of antibody-coated magnetic beads was dispensed at 50 ul/well and incubated at room temperature for 2 h in a horizontal orbital microplate shaker at 800±500 rpm. The beads were washed using a magnetic device to prevent loss. The biotin-antibody was dispensed in 50 ul of each well and incubated at room temperature for 1 h in a shaker at 800±500 rpm. After washing, streptavidin-PE was added at 50 ul/well and incubated at room temperature for 30 min in a shaker under the same conditions. Finally, after washing, wash buffer (100 ul/well) was added to the plate and incubated in a shaker for 2 min. The Luminex™ 200 setting were set according to the manufacturer's protocol. The data was calculated with a standard five-parameter logistic nonlinear regression analysis of the data (xPonent software 4.2, USA). The levels of cytokine/chemokine are normalized to the live cell counts (1×10^5 cells/mL) and presented as concentrations per mL (pg/mL or ng/mL).

IL-1 alpha = test: Example 9 Luminex, LPS hPBMCs: IL-1 alpha; format: cell-based, human; conditions: for Concentration / conc/live cell: IL-1 alpha, replicates and Mean
Procedure: as §1, §2, §3

[1] = PBMC + LPS(5 ug/ml) + YY101 0.001 uM
[2] = PBMC + LPS(5 ug/ml) + YY101 0.001 uM, mean
[3] = PBMC + LPS(5 ug/ml) + YY101 0.01 uM
[4] = PBMC + LPS(5 ug/ml) + YY101 0.01 uM, mean
[5] = PBMC + LPS(5 ug/ml) + YY101 0.1 uM
[6] = PBMC + LPS(5 ug/ml) + YY101 0.1 uM, mean
[7] = PBMC + LPS(5 ug/ml) + YY101 1 uM
[8] = PBMC + LPS(5 ug/ml) + YY101 1 uM, mean
[9] = PBMC + LPS(5 ug/ml) + YY101 10 uM
[10] = PBMC + LPS(5 ug/ml) + YY101 10 uM, mean
[11] = PBMC + LPS(5 ug/ml) + YY101 100 uM
[12] = PBMC + LPS(5 ug/ml) + YY101 100 uM, mean
[13] = PBMC + YY101 0.01 uM (second group so labelled), no LPS
[14] = PBMC + YY101 0.01 uM (second group so labelled), no LPS, mean
[15] = PBMC + YY101 0.01 uM, no LPS, mean
[16] = PBMC + YY101 1 uM, no LPS, mean
[17] = PBMC + YY101 10 uM, no LPS, mean
[18] = PBMC + YY101 100 uM, no LPS, mean

SMILES: CC(C)C[C@H](NC(=O)CNC(=O)[C@H](CC(=O)O)NC(=O)[C@H](CCC(N)=O)NC(=O)CNC(=O)[C@@H]1C[C@@H](O)CN1)C(=O)N[C@@H](C)C(=O)NCC(=O)N1CCC[C@H]1C(=O)N[C@@H](CCCCN)C(=O)O [YY-101] (H-[Hyp]GQDGLAGPK-OH; N-terminus and C-terminus assumed)
- MFI (IL-6; 10 uM, single replicates): 27.3 and 3.3
- conc/live cell (IL-6; 10 uM, single replicates): 137.6 pg/10^5 and 0.0 pg/10^5
- Concentration (IL-6; 100 uM, Mean): 524.7 pg/mL
- MFI (IL-6; 100 uM, Mean): 15.8
- conc/live cell (IL-6; 100 uM, Mean): 41.0 pg/10^5
- Concentration (IL-6; 100 uM, single replicates): 524.7 pg/mL
- MFI (IL-6; 100 uM, single replicates): 19.8 and 11.8
- conc/live cell (IL-6; 100 uM, single replicates): 82.0 pg/10^5 and 0.0 pg/10^5
- Concentration (IL-1 alpha; [1]): 426.2 pg/mL and 461.9 pg/mL and 419.9 pg/mL
- conc/live cell (IL-1 alpha; [1]): 74.8 pg/10^5 and 65.1 pg/10^5 and 63.6 pg/10^5
- Concentration (IL-1 alpha; [2]): 436.0 pg/mL
- conc/live cell (IL-1 alpha; [2]): 67.8 pg/10^5
- Concentration (IL-1 alpha; [3]): 506.1 pg/mL and 475.9 pg/mL and 484.7 pg/mL
- conc/live cell (IL-1 alpha; [3]): 79.1 pg/10^5 and 79.3 pg/10^5 and 79.5 pg/10^5
- Concentration (IL-1 alpha; [4]): 488.9 pg/mL
- conc/live cell (IL-1 alpha; [4]): 79.3 pg/10^5
- Concentration (IL-1 alpha; [5]): 491.3 pg/mL and 481.8 pg/mL and 482.5 pg/mL
- conc/live cell (IL-1 alpha; [5]): 79.2 pg/10^5 and 92.6 pg/10^5 and 77.8 pg/10^5
- Concentration (IL-1 alpha; [6]): 485.2 pg/mL
- conc/live cell (IL-1 alpha; [6]): 83.2 pg/10^5
- Concentration (IL-1 alpha; [7]): 451.2 pg/mL and 427.3 pg/mL and 434.3 pg/mL
- conc/live cell (IL-1 alpha; [7]): 71.6 pg/10^5 and 60.2 pg/10^5 and 70.0 pg/10^5
- Concentration (IL-1 alpha; [8]): 437.6 pg/mL
- conc/live cell (IL-1 alpha; [8]): 67.3 pg/10^5
- Concentration (IL-1 alpha; [9]): 473.3 pg/mL and 470.7 pg/mL and 483.6 pg/mL
- conc/live cell (IL-1 alpha; [9]): 78.9 pg/10^5 and 73.6 pg/10^5 and 63.6 pg/10^5
- Concentration (IL-1 alpha; [10]): 475.9 pg/mL
- conc/live cell (IL-1 alpha; [10]): 72.0 pg/10^5
- Concentration (IL-1 alpha; [11]): 656.9 pg/mL and 616.5 pg/mL and 614.2 pg/mL
- conc/live cell (IL-1 alpha; [11]): 104.3 pg/10^5 and 99.4 pg/10^5 and 122.8 pg/10^5
- Concentration (IL-1 alpha; [12]): 629.2 pg/mL
- conc/live cell (IL-1 alpha; [12]): 108.8 pg/10^5
- Concentration (IL-1 alpha; [13]): 1.0 pg/mL and 5.3 pg/mL
- conc/live cell (IL-1 alpha; [13]): 0.2 pg/10^5 and 0.9 pg/10^5
- Concentration (IL-1 alpha; [14]): 3.1 pg/mL
- conc/live cell (IL-1 alpha; [14]): 0.6 pg/10^5
- Concentration (IL-1 alpha; PBMC + YY101 0.01 uM, no LPS): 1.0 pg/mL and 5.3 pg/mL
- conc/live cell (IL-1 alpha; PBMC + YY101 0.01 uM, no LPS): 0.2 pg/10^5 and 1.1 pg/10^5
- Concentration (IL-1 alpha; [15]): 3.1 pg/mL
- conc/live cell (IL-1 alpha; [15]): 0.6 pg/10^5
- Concentration (IL-1 alpha; PBMC + YY101 1 uM, no LPS): 5.3 pg/mL
- conc/live cell (IL-1 alpha; PBMC + YY101 1 uM, no LPS): 1.0 pg/10^5
- Concentration (IL-1 alpha; [16]): 5.3 pg/mL
- conc/live cell (IL-1 alpha; [16]): 1.0 pg/10^5
- Concentration (IL-1 alpha; PBMC + YY101 10 uM, no LPS): 31.7 pg/mL and 7.1 pg/mL
- conc/live cell (IL-1 alpha; PBMC + YY101 10 uM, no LPS): 5.0 pg/10^5 and 1.2 pg/10^5
- Concentration (IL-1 alpha; [17]): 19.4 pg/mL
- conc/live cell (IL-1 alpha; [17]): 3.1 pg/10^5
- Concentration (IL-1 alpha; PBMC + YY101 100 uM, no LPS): 10.4 pg/mL and 5.3 pg/mL
- conc/live cell (IL-1 alpha; PBMC + YY101 100 uM, no LPS): 1.6 pg/10^5 and 0.8 pg/10^5
- Concentration (IL-1 alpha; [18]): 7.9 pg/mL
- conc/live cell (IL-1 alpha; [18]): 1.2 pg/10^5
- LPS-induced IL-1a levels (in words) (IL-1 alpha; at 100.iM, LPS 5 ug/mL 24 hrs): further increased
